The subject of series [1] is CALU-1 cells. Kind of series: Cell proliferation assay, CALU-1 cells (Cell-titer Glo). Type of series: cell-based. The following applies: Homo sapiens, 120 h incubation. How it is done:
The CALU-1 cells were spread on a 96-well ultra-low adsorption plate with 1000 cells and 190 μL/well. After incubating overnight, compound solutions of gradient concentration was prepared, and added 10 μL of DMSO solution of the test compound of each concentration to the cells of each well. The final concentration of the compound is 30000, 10000, 3333.3, 1111.1, 370.4, 123.5, 41.2, 13.7, 4.6, 0 nM (the final concentration of DMSO is 0.25%). Incubated for 120 h at 37° C. and 5% CO2. 60 μL of Cell-titer Glo working solution was added to each well, shaked and mixed, and incubated at room temperature for 10 minutes. The multi-functional microplate reader read the luminescence value, and converted the luminescence value reading into inhibition percentage.
Inhibition percentage=(maximum value−reading)/(maximum value−minimum value)*100.
The “maximum value” was the DMSO control, the “minimum value” indicates the cell-free control group.
Graphpad Prism software was used to perform curve fitting and obtain IC50 value.
The compounds of the examples have good inhibition on CALU-1 cells, and their activity is better than that of ARS-1620. Refer to Table 2 for the IC50 data of some compounds in the examples inhibiting CALU-1 cells.

The test system of series [2] is MIA-PACA-2 cells. Kind of series: Cell proliferation assay, MIA-PACA-2 cells (Cell-titer Glo). Type of series: cell-based. The following applies: Homo sapiens, 96 h incubation. The gist of the method: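 MIA-PACA-2 cells, 600 per well in ultra-low-attachment plates, exposed 96 h at 37 °C to compound at 0.025–10000 nM final (0.25% DMSO). Viability by CellTiter-Glo luminescence; inhibition normalised to DMSO and cell-free controls, IC50 from curve fit.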

A short description of series [3]: Permeability assay, Caco-2 monolayer cell model. In kind it is in vitro ADME. The following applies: human, Caco-2, compound 5 μM, Verapamil 0 μM; for efflux ratio at 120 min, 5 μM: read-out: RE (Efflux Ratio). How it is done:
The Caco-2 monolayer cell model was used to determine the bidirectional permeability and efflux rate of the example compounds and the comparative compounds. In the experiment, 50 μL of 6.86×10^5 cells/mL Caco-2 cells (passage 45) were seeded into 96-well cell culture plates, and cultured continuously for 14-18 days for transport experiments. The corresponding compound was administered bidirectionally with or without verapamil (P glycoprotein (P-gp) inhibitor), at a concentration of 5 μM. At 37° C., after incubating with shaking at 150 rpm for 120 minutes, the top and basal samples were collected, and the content of each compound in the samples was determined by liquid chromatography tandem mass spectrometry (LC/MS/MS).
Refer to the Table 4 for permeability data of some compounds in the examples.
(Caco-2 monolayers are a common model of the intestinal barrier.)

A word on the IC50: it is the point on the concentration scale where inhibition reaches its midpoint. In general, Papp A→B refers to the apparent permeability from the apical to the basolateral side of a cell layer. Read a low Papp A→B as slow passage. As usually defined, the Papp B→A is the apparent permeability from the basolateral to the apical side of a cell layer.

Turning to `C=CC(=O)N1CCN(c2ncnc3c(F)c(-c4c(O)cccc4F)c(Cl)cc23)CC1` [ARS-1620, reference compound], the figures for the IC50 in series [1] and in series [2] were 245 nM and 284 nM, respectively.
In turn, `C=CC(=O)N1CC2(CCN(c3nc(C4CCN(C)CC4)nc4c(OCC(F)(F)F)c(-c5c(C)ccc6[nH]ncc56)c(C=C)cc34)CC2)C1` [Compound 1, 1-(7-(7-(5-methyl-1H-indazol-4-yl)-2-(1 methylpiperidin-4-yl)-8-(2,2,2-trifluoroethoxy)-6-vinylquinazolin-4-yl)-2,7-diazaspiro[3.5]nonan-2-yl)prop-2-en-1-one] displayed an IC50 in series [1] of 2.7 nM. In series [3], the Papp A→B at 120 min, 5 μM is 0.51 ×10⁻⁶ cm/s; the Papp B→A at 120 min, 5 μM worked out at 7.18 ×10⁻⁶ cm/s; the efflux ratio at 120 min, 5 μM amounted to 14.2.
In series [1], `C=CC(=O)N1CC2(CCN(c3nc(C4CCN(C)CC4)nc4c(OCC(F)(F)F)c(-c5c(C)ccc6[nH]ncc56)c(CC)cc34)CC2)C1` [Compound 4, 1-(7-(6-ethyl-7-(5-methyl-1H-indazol-4-yl)-2-(1-methylpiperidin-4-yl)-8-(2,2,2-trifluoroethoxy)quinazolin-4-yl)-2,7-diazaspiro[3.5]nonan-2-yl)prop-2-en-1-one] came in with an IC50 of 2.9 nM. In addition, in series [3], the Papp A→B at 120 min, 5 μM was 0.21 ×10⁻⁶ cm/s; the Papp B→A at 120 min, 5 μM came out at 9.64 ×10⁻⁶ cm/s; the efflux ratio at 120 min, 5 μM came out at 46.5.
Consider `C=CC(=O)N1CC2(CCN(c3nc(C4CCN(C)CC4)nc4c(F)c(-c5c(C)ccc6[nH]ncc56)c(C=C)cc34)CC2)C1` [Compound 5, 1-(7-(8-fluoro-7-(5-methyl-1H-indazol-4-yl)-2-(1-methylpiperidin-4-yl)-synthesis of 6-vinylquinazolin-4-yl)-2,7-diazaspiro[3.5]nonan-2-yl)prop-2-en-1-one], for which the IC50 in series [1] is 103 nM.
On to `C=CC(=O)N1CC2(CCN(c3nc(C4CCOCC4)nc4c(OCC(F)(F)F)c(-c5c(C)ccc6[nH]ncc56)c(C=C)cc34)CC2)C1` [Compound 6, 1-(7-(7-(5-methyl-1H-indazol-4-yl)-2-(tetrahydro-2H-pyran-4-yl)-8-(2,2,2-trifluoroethoxy)-6-vinylquinazolin-4-yl)-2,7-diazaspiro[3.5]nonan-2-yl)prop-2-en-1-one], for which the IC50 in series [1] was 45.7 nM.
In the case of `C=CC(=O)N1CC2(CCN(c3nc(C4CCN(C)C4)nc4c(OCC(F)(F)F)c(-c5c(C)ccc6[nH]ncc56)c(C=C)cc34)CC2)C1` (stereo not shown) [Compound 8], the IC50 in series [1] was determined as 4.6 nM. This IC50 lies about 9.9-fold lower than the previous one.
